Measured values: the kinase profiling compilation of Christmann-Franck et al. (2016)
Several values for one entry are separate records, joined by “and”; a condition that tells them apart may be missing. Equal values may be shown once.

Assays:
Test in all cases: radiometric filter-binding kinase assay, Kinase HotSpot
Settings in all cases: compound 0.5 µM; ATP 10 µM
AKT2 (human) = AKT2 (human) (UniProt P31751)
ALK (human) = ALK (human) (UniProt Q9UM73)
BMX (human) = BMX (human) (UniProt P51813)
CAMK2B (human) = CAMK2B (human) (UniProt Q13554)
CDC42BPA (human) = CDC42BPA (human) (UniProt Q5VT25)
CDK3 CCNE1 (human) = CDK3 CCNE1 (human) (UniProt Q00526+P24864)
CLK2 (human) = CLK2 (human) (UniProt P49760)
CSK (human) = CSK (human) (UniProt P41240)
DAPK1 (human) = DAPK1 (human) (UniProt P53355)
DMPK (human) = DMPK (human) (UniProt Q09013)
EPHA4 (human) = EPHA4 (human) (UniProt P54764)
EPHB2 (human) = EPHB2 (human) (UniProt P29323)
GRK7 (human) = GRK7 (human) (UniProt Q8WTQ7)
GSK3A (human) = GSK3A (human) (UniProt P49840)
HCK (human) = HCK (human) (UniProt P08631)
IRAK1 (human) = IRAK1 (human) (UniProt P51617)
LRRK2 (human) = LRRK2 (human) (UniProt Q5S007)
LTK (human) = LTK (human) (UniProt P29376)
LYN (human) = LYN (human) (UniProt P07948)
MAP3K11 (human) = MAP3K11 (human) (UniProt Q16584)
MAP4K2 (human) = MAP4K2 (human) (UniProt Q12851)
NEK1 (human) = NEK1 (human) (UniProt Q96PY6)
NEK7 (human) = NEK7 (human) (UniProt Q8TDX7)
NTRK1 (human) = NTRK1 (human) (UniProt P04629)
OXSR1 (human) = OXSR1 (human) (UniProt O95747)
PAK4 (human) = PAK4 (human) (UniProt O96013)
PAK7 (human) = PAK7 (human) (UniProt Q9P286)
PIM2 (human) = PIM2 (human) (UniProt Q9P1W9)
PRKD2 (human) = PRKD2 (human) (UniProt Q9BZL6)
PRKG1 (human) = PRKG1 (human) (UniProt Q13976)
PRKG2 (human) = PRKG2 (human) (UniProt Q13237)
RIPK2 (human) = RIPK2 (human) (UniProt O43353)
ROCK1 (human) = ROCK1 (human) (UniProt Q13464)
ROCK2 (human) = ROCK2 (human) (UniProt O75116)
RPS6KB1 (human) = RPS6KB1 (human) (UniProt P23443)
SRC (human) = SRC (human) (UniProt P12931)
STK10 (human) = STK10 (human) (UniProt O94804)
STK17A (human) = STK17A (human) (UniProt Q9UEE5)
STK25 (human) = STK25 (human) (UniProt O00506)
TNK2 (human) = TNK2 (human) (UniProt Q07912)
TSSK2 (human) = TSSK2 (human) (UniProt Q96PF2)
ZAP70 (human) = ZAP70 (human) (UniProt P43403)
ZAP70 (human), sequence (P43403 whole entry, looked up): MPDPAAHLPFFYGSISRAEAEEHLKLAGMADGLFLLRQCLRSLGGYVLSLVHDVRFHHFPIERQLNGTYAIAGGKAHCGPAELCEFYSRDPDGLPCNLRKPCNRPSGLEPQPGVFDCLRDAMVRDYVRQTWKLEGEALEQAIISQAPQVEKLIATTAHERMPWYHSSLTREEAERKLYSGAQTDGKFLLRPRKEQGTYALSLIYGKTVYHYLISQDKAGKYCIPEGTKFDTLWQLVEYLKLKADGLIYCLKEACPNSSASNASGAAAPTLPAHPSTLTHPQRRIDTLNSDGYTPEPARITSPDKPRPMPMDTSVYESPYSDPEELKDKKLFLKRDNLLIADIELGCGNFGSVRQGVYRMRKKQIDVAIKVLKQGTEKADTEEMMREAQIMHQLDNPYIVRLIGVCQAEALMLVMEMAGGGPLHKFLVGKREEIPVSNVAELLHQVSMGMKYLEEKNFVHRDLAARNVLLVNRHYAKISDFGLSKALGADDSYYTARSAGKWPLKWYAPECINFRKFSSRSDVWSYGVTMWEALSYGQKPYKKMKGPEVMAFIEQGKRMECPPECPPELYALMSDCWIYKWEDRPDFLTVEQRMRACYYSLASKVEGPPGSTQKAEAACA

HCK (human), sequence (P08631 whole entry, looked up): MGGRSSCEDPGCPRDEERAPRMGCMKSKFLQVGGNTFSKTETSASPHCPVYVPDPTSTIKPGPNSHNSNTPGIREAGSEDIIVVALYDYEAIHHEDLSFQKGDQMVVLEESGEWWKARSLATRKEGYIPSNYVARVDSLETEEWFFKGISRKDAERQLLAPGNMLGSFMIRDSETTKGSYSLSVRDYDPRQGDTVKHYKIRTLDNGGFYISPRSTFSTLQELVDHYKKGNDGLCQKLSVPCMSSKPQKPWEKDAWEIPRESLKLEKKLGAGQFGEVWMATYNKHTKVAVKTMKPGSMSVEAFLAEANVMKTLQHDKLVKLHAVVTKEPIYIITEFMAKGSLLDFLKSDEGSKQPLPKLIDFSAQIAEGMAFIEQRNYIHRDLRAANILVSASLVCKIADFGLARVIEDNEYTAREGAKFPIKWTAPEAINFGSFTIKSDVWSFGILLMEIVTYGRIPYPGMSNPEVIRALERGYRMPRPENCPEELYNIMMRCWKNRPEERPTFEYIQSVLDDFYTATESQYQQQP
GRK7 (human), sequence (Q8WTQ7 whole entry, looked up): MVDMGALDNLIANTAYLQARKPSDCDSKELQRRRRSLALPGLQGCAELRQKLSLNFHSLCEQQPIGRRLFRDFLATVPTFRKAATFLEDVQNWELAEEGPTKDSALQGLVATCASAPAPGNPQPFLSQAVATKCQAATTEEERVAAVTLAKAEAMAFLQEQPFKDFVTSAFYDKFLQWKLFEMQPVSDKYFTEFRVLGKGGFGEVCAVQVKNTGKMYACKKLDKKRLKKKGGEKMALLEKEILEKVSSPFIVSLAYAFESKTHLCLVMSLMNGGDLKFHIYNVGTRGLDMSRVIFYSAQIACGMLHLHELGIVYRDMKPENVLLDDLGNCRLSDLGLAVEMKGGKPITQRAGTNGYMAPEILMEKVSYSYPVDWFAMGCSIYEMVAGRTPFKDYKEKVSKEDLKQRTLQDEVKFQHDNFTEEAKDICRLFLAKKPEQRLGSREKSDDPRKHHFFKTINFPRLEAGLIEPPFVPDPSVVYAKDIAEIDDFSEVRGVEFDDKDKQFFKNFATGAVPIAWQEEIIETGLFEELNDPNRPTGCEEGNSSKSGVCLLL
CDK3 CCNE1 (human), sequence (P24864 whole entry, looked up): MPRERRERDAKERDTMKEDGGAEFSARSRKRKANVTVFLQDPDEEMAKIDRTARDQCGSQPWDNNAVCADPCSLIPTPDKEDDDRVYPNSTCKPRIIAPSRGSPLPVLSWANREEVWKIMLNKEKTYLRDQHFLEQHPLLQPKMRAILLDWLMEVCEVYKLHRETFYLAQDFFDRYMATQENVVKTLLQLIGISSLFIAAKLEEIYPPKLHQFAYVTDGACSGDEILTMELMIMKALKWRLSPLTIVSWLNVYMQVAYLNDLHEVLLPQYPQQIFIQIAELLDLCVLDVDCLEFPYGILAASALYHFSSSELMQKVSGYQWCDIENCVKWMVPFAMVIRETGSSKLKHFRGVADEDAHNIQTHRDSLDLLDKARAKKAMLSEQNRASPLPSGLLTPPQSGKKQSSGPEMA
CDK3 CCNE1 (human), sequence (Q00526 whole entry, looked up): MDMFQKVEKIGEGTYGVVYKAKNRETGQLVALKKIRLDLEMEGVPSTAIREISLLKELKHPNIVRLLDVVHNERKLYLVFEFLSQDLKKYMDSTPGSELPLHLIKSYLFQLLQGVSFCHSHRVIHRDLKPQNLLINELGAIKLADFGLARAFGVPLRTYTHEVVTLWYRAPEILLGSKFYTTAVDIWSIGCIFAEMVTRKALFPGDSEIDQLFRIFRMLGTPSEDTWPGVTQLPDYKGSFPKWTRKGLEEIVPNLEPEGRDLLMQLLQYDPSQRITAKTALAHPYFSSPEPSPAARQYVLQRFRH
TSSK2 (human), sequence (Q96PF2 whole entry, looked up): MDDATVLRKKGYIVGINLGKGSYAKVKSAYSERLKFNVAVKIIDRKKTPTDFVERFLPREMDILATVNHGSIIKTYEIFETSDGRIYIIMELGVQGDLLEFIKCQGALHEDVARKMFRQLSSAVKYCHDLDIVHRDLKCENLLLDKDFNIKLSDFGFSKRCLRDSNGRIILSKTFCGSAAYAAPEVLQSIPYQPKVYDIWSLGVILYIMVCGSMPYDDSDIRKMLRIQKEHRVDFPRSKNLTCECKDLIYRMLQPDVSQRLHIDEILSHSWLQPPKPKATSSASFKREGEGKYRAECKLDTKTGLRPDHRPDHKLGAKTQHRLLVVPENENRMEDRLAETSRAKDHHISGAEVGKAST
ROCK2 (human), sequence (O75116 whole entry, looked up): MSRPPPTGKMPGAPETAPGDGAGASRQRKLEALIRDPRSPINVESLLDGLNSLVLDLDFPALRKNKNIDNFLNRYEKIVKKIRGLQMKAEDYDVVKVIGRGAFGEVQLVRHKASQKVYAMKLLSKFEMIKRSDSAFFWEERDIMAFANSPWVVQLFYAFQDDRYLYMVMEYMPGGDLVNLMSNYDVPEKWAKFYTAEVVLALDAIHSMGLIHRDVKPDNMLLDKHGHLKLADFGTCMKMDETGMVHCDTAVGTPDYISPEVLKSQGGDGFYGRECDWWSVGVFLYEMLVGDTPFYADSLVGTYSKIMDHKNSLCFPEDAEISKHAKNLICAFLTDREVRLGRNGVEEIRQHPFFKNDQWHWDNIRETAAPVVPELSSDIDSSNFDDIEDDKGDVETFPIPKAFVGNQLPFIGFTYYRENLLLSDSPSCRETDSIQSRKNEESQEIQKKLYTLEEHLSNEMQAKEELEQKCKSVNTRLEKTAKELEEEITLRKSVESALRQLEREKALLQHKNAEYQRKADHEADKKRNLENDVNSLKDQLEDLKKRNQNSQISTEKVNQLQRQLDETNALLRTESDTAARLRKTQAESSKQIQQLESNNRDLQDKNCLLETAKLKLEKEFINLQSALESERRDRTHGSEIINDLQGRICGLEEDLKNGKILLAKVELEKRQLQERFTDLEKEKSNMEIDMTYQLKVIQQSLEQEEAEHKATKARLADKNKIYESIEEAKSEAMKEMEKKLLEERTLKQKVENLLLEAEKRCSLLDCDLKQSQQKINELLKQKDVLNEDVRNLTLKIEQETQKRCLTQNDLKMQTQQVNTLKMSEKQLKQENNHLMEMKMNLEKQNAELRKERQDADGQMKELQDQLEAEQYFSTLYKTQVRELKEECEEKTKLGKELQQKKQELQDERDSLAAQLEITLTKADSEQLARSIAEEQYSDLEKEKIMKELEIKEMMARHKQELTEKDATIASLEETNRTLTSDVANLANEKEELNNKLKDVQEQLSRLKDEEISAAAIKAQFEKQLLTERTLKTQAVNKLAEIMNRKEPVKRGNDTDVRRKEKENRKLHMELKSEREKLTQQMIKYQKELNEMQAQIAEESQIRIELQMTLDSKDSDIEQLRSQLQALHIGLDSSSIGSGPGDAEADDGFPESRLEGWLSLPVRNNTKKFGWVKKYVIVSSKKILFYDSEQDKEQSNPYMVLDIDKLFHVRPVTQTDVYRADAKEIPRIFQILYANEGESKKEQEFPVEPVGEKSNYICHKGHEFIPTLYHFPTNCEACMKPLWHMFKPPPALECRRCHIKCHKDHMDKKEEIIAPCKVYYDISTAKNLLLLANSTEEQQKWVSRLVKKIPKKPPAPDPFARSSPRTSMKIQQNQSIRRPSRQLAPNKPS
MAP4K2 (human), sequence (Q12851 whole entry, looked up): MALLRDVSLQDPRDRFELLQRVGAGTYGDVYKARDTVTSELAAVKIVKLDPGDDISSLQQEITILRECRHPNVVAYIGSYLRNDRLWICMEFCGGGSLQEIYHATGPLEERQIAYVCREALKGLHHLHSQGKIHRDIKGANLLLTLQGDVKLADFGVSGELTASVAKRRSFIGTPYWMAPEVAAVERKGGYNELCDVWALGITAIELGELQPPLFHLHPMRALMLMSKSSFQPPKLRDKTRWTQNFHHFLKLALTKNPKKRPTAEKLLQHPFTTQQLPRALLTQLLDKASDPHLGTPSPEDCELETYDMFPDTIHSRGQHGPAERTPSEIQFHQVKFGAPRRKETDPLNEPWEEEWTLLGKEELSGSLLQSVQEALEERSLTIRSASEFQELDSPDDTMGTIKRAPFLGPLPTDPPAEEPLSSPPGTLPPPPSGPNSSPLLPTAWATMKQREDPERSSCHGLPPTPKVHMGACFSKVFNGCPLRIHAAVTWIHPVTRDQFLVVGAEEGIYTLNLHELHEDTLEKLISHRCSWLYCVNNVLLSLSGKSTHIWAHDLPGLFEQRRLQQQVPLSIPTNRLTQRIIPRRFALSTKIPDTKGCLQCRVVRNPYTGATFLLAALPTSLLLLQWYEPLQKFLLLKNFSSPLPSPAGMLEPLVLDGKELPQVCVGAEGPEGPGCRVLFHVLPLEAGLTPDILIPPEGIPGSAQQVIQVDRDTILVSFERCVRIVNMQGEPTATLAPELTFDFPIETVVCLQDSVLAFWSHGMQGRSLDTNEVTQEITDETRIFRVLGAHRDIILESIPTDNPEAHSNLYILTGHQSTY

Compound: CCOc1cc2ncnc(Nc3cccc(Br)c3)c2cc1OCC
- residual activity (AKT2 (human)): 87.6%
- residual activity (ALK (human)): 85.8%
- residual activity (BMX (human)): 95.5%
- residual activity (CAMK2B (human)): 98.8%
- residual activity (CDC42BPA (human)): 85.4%
- residual activity (CDK3 CCNE1 (human)): 95.2%
- residual activity (CLK2 (human)): 92.6%
- residual activity (CSK (human)): 94%
- residual activity (DAPK1 (human)): 77.4%
- residual activity (DMPK (human)): 102%
- residual activity (EPHA4 (human)): 75.1%
- residual activity (EPHB2 (human)): 77%
- residual activity (GRK7 (human)): 102%
- residual activity (GSK3A (human)): 110%
- residual activity (HCK (human)): 59.4%
- residual activity (IRAK1 (human)): 95.1%
- residual activity (LRRK2 (human)): 78.7%
- residual activity (LTK (human)): 69.7%
- residual activity (LYN (human)): 32.1% and 49.5%
- residual activity (MAP3K11 (human)): 93%
- residual activity (MAP4K2 (human)): 91.5%
- residual activity (NEK1 (human)): 99.2%
- residual activity (NEK7 (human)): 98.6%
- residual activity (NTRK1 (human)): 89.6%
- residual activity (OXSR1 (human)): 102%
- residual activity (PAK4 (human)): 115%
- residual activity (PAK7 (human)): 99.1%
- residual activity (PIM2 (human)): 98.9%
- residual activity (PRKD2 (human)): 86.9%
- residual activity (PRKG1 (human)): 96% and 96.7%
- residual activity (PRKG2 (human)): 83.9%
- residual activity (RIPK2 (human)): 39.8%
- residual activity (ROCK1 (human)): 98.8%
- residual activity (ROCK2 (human)): 91.8%
- residual activity (RPS6KB1 (human)): 95.8%
- residual activity (SRC (human)): 74.8%
- residual activity (STK10 (human)): 30.5%
- residual activity (STK17A (human)): 98.9%
- residual activity (STK25 (human)): 90.1%
- residual activity (TNK2 (human)): 58.8%
- residual activity (TSSK2 (human)): 104%
- residual activity (ZAP70 (human)): 105%

Compound: N#Cc1c(NC(=O)c2cccc3ccccc23)sc2c1CCCC2
- residual activity (AKT2 (human)): 105%
- residual activity (ALK (human)): 96.4%
- residual activity (BMX (human)): 101%
- residual activity (CAMK2B (human)): 101%
- residual activity (CDC42BPA (human)): 103%
- residual activity (CDK3 CCNE1 (human)): 99.2%
- residual activity (CLK2 (human)): 101%
- residual activity (CSK (human)): 91.5%
- residual activity (DAPK1 (human)): 109%
- residual activity (DMPK (human)): 109%
- residual activity (EPHA4 (human)): 99%
- residual activity (EPHB2 (human)): 97.5%
- residual activity (GRK7 (human)): 116%
- residual activity (GSK3A (human)): 97.2%
- residual activity (HCK (human)): 96.5%
- residual activity (IRAK1 (human)): 104%
- residual activity (LRRK2 (human)): 100%
- residual activity (LTK (human)): 102%
- residual activity (LYN (human)): 104% and 87%
- residual activity (MAP3K11 (human)): 103%
- residual activity (MAP4K2 (human)): 86.1%
- residual activity (NEK1 (human)): 93.4%
- residual activity (NEK7 (human)): 89.2%
- residual activity (NTRK1 (human)): 105%
- residual activity (OXSR1 (human)): 103%
- residual activity (PAK4 (human)): 95.2%
- residual activity (PAK7 (human)): 103%
- residual activity (PIM2 (human)): 104%
- residual activity (PRKD2 (human)): 126%
- residual activity (PRKG1 (human)): 101% and 94.6%
- residual activity (PRKG2 (human)): 111%
- residual activity (RIPK2 (human)): 81.3%
- residual activity (ROCK1 (human)): 96.3%
- residual activity (ROCK2 (human)): 98%
- residual activity (RPS6KB1 (human)): 105%
- residual activity (SRC (human)): 93.5%
- residual activity (STK10 (human)): 97.7%
- residual activity (STK17A (human)): 104%
- residual activity (STK25 (human)): 95.7%
- residual activity (TNK2 (human)): 95.4%
- residual activity (TSSK2 (human)): 104%
- residual activity (ZAP70 (human)): 95%

Compound: COc1cc2c(cc1OC)-c1[nH]nc(Nc3cccc(F)c3)c1C2
- residual activity (AKT2 (human)): 95.3%
- residual activity (ALK (human)): 103%
- residual activity (BMX (human)): 74.8%
- residual activity (CAMK2B (human)): 101%
- residual activity (CDC42BPA (human)): 119%
- residual activity (CDK3 CCNE1 (human)): 95.4%
- residual activity (CLK2 (human)): 84.3%
- residual activity (CSK (human)): 44.9%
- residual activity (DAPK1 (human)): 90.7%
- residual activity (DMPK (human)): 109%
- residual activity (EPHA4 (human)): 93.3%
- residual activity (EPHB2 (human)): 94.8%
- residual activity (GRK7 (human)): 101%
- residual activity (GSK3A (human)): 101%
- residual activity (HCK (human)): 61.9%
- residual activity (IRAK1 (human)): 97.8%
- residual activity (LRRK2 (human)): 82.3%
- residual activity (LTK (human)): 93.3%
- residual activity (LYN (human)): 60.2% and 77.5%
- residual activity (MAP3K11 (human)): 93.9%
- residual activity (MAP4K2 (human)): 103%
- residual activity (NEK1 (human)): 93%
- residual activity (NEK7 (human)): 100%
- residual activity (NTRK1 (human)): 98.8%
- residual activity (OXSR1 (human)): 121%
- residual activity (PAK4 (human)): 89.9%
- residual activity (PAK7 (human)): 93.2%
- residual activity (PIM2 (human)): 119%
- residual activity (PRKD2 (human)): 96.3%
- residual activity (PRKG1 (human)): 104% and 95.2%
- residual activity (PRKG2 (human)): 92.5%
- residual activity (RIPK2 (human)): 76.3%
- residual activity (ROCK1 (human)): 87.5%
- residual activity (ROCK2 (human)): 95.2%
- residual activity (RPS6KB1 (human)): 99.1%
- residual activity (SRC (human)): 63.4%
- residual activity (STK10 (human)): 89%
- residual activity (STK17A (human)): 87%
- residual activity (STK25 (human)): 103%
- residual activity (TNK2 (human)): 15.1%
- residual activity (TSSK2 (human)): 75.1%
- residual activity (ZAP70 (human)): 95.3%
